# Assay results reported in US20110124644A1, “METHODS OF DIAGNOSING AND CHARACTERIZING CANNABINOID SIGNALING IN CROHN'S DISEASE” (CEDARS-SINAI MEDICAL CENTER, priority 2008, published 2011).
# Key:
# CB2 receptor = assay: CB2 agonist (AM1241) inhibition of forskolin-stimulated cAMP production in patient lymphoblastoid cell lines, ELISA; format: cell-based, human; details: 250 nM AM1241; 25 nM forskolin; Crohn's disease patient LCLs
# Experimental: FIG. 7 depicts, in accordance with an embodiment herein, CB2 receptor protein expression and function. Flow cytometry data derived from staining of 40 Crohn's disease patient lymphoblastoid cell lines with monoclonal CB2 receptor (IgG2A) was generated. LCLs from patients with Crohn's disease were grown in culture and plated 1×10^6 per well on a 96 well plate. These cells were then incubated for 20 minutes with 10 mM IBMX, a phosphodiesterase inhibitor, and washed. Cells were incubated in the presence of various concentrations of forskolin or media control with or without the addition of 250 nM AM1241. Samples were run in triplicate. […] Plates were frozen at −20 degrees and lysates assayed the following day for cAMP concentration using a commercial ELISA kit (R and D) and microwell ELISA plate reader.
# A CNR2 candidate gene case-control analysis was performed with 449 patients with Crohn's disease, 215 with ulcerative colitis, and 201 controls. […] EBV immortalized lymphoblastoid cell lines (LCLs) were analyzed for CB2 receptor by flow cytometry, and for CB2 receptor function (Gi-mediated adenylate cyclase inhibition) by CB2 agonist (AM1241) inhibition of forskolin-stimulated cAMP production, measured by ELISA.
# To assess the LCL response to CB2 specific agonist, intracellular cAMP was quantified using a standard ELISA kit (R and D Systems). […]
# [1] = tested on: murine model of acute colitis (DSS, C3H/HeJ mice); assay: Acute colitis model: dextran sodium sulfate (DSS) colitis; format: in vivo, mouse; details: 3.5% DSS; 1 mg/kg i.p. from two days before DSS, then every other day
# Description: FIG. 11 (a) depicts, in accordance with an embodiment herein, the effect of CB2 agonist on murine model of acute colitis. Groups of 5 wildtype C3H/HeJ mice were challenged with either DSS 3.5% or acidified water and injected intraperitoneally with CB2 agonist (AM1241(AM)) or antagonist (SR144928 (SR)) or vehicle control (DMSO (D) for AM1241, or EtOH (E) for SR144928) and monitored for weight loss. Intestinal sections were scored histologically at day 10. (b) and (c.) depicts the comparison of DSS colitis in CB2−/− and WT mice, with (b) weight loss and (c) histologic scoring. This is representative of three or more independent experiments.
# 3.5% Dextran sulfate sodium (prepared in acidified drinking water) was obtained from MP Biomedicals, Inc (Solon, Ohio). Acidified drinking water of colitis-induced mice was replaced with DSS solution for a total of eight days. Controls were given standard acidified drinking water. All mice were sacrificed on day 12, at which time the DSS-treated mice had lost approximately 20% of their body weight. Experiments were performed in duplicate, with groups of 6 mice in each treatment arm. AM1241 (Sigma-Aldrich, MO, in DMSO, 1 mg/mL) was suspended in 250 μL sterile 0.9% saline and injected intraperitoneally (i.p.) at a dose of 1 mg/kg beginning two days prior to the administration of DSS (or acidified drinking water in the control group) and then every other day until the mice were euthanized. […]
# Colitis was quantified by both weight loss and histology of intestinal sections. […] Each section was then scored by one blinded pathologist using a standard experimental colitis scoring system.
# The effect of CB2-specific agonist in the setting of acute colitis was evaluated using dextran sodium sulfate (DSS), an ingested agent which induces acute, non-T cell mediated colitis (weight loss and bloody diarrhea) within three to five days. Mice were pre-treated with AM1241 or vehicle control, and then monitored for the level of acute colitis induced by DSS ingestion. […]
# [2] = tested on: murine model of immune colitis (Rag1 −/− mice); assay: Immune colitis model: transfer of Gαi2−/− T cells into Rag1 −/− mice; format: in vivo, mouse; details: i.p. every other day, vs DMSO vehicle
Molecule,inhibition of forskolin-stimulated adenylate cyclase-dependent cAMP response (CB2 receptor),DSS colitis severity compared to vehicle control [1],weight loss compared to vehicle control ([2]; Rag1 −/− mice after Gαi2−/− T cell transfer),quantitative histologic scoring of intestinal inflammation compared to vehicle control ([2]; sacrificed 8 weeks after T cell transfer)
CN1CCCCC1Cn1cc(C(=O)c2cc([N+](=O)[O-])ccc2I)c2ccccc21 (stereo not drawn) [AM1241],approximately 55%,significantly more severe,lost significantly less weight,dramatically reduced for inflammation
COc1ccc(C(=O)c2c(C)n(CCN3CCOCC3)c3cc(I)ccc23)cc1 [AM630],,reduced DSS colitis severity,,
SR144528,,ameliorated DSS colitis,,
